Source: patent publication US6599943B1, “Use of hydroxyguanidines” (WaPharm AB, priority 1996, dated 2003)

Columns and labels:
Type in all cases: biochemical
xanthine oxidase = xanthine oxidase (Bos taurus, UniProt P80457); test: Inhibition of superoxide radical formation by xanthine oxidase, EPR with DMPO; details: 100 μM guanoxabenz, 100 μM xanthine, 0.04 units/ml xanthine oxidase, 50 μM DMPO
Procedure: Capacity of hydroxyguanidines to inhibit the formation of superoxide radicals by xanthine oxidase in the presence of oxygen. The detection of the spin adducts of superoxide formed by xanthine oxidase and xanthine reaction was performed by using a Bruker ER200D-SRC EPR spectrometer equipped with an ER4105ST double cavity and the spin trap agent DMPO, by essentially using the approach described by Britigan et al. (1990). In brief, reaction mixtures of total volumes of 0.5 ml were prepared by adding to a plastic tubes, in the listed order, reagents that gave final concentrations as follows: 50 mM Tris HCl, 1.5 mM EDTA, 100 μM xanthine, 100 μM guanoxabenz, 0.04 units/ml xanthine oxidase and 50 μM DMPO, pH 7.5. As a control served an identical reaction mixture except that guanoxabenz had been omitted. The solutions were immediately transferred to standard flat cells for aqueous samples and spectra were recorded at room temperature. Spectrometer settings were as follows: microwave power 3.99 mW; modulation amplitude 1.028 G; time constant 10.24 ms; modulation frequency 100 kHz; receiver gain, 5×10^4. In FIG. 6 is shown an exemplary recording from these tests. […] This additional signal was due to a contaminant corresponding to “nitric oxide” that was released from the disposable laboratory plastic used in the preparation of the samples (see Buettner et al., 1991).

rat heart cytosol = test: Hydroxyguanidine reducing activity of heart cytosol by radioligand binding assay; details: 70 μM guanoxabenz, 1 hr at 25° C.
Procedure: Assay of hydroxyguanidine reducing activity by radioligand binding. The assay is based on the possibility to measure the affinity of ligands to α2-adrenoceptors by using radioligand binding. In a typical experiment small aliquots of the sample to be measured is added to an assay containing membranes rich in α2-adrenoceptors as well as a suitable concentration of a radioligand capable of binding to α2-adrenoceptors. After the assay mixture has been incubated for a suitable time, to achieve equilibrium, the amount of radioligand bound to the membranes is measured by washing and filtering on GF/C glass fibre filters using methods that are well described in literature, and which are commonly referred to as radioligand binding. The ability of the hydroxyguanidine and its product to inhibit the binding of the radioligand to the α2-adrenoceptor constituted a measure of the hydroxyguanidine/guanidine activity of the reaction mixture. A preferred hydroxyguanidine is one which corresponding guanidine show substantially different affinity compared to the hydroxyguanidine itself. A most preferred example of such a hydroxyguanidine is guanoxabenz.
In a more more exact version of the assay the “apparent affinity” of the mixture of hydroxyguanidine and guanidine-product is measured by constructing a complete competition curve for each sample to be measured. This is achieved by adding different dilutions of the reaction mixture to the radioligand binding assay. Since the sum of the concentration of the hydroxyguanidine and the guanidine product is known, the “apparent affinity” of the mixture can be calculated from the radioligand binding data using standard procedures for radioligand binding data analysis (Uhlén and Wikberg,1991). For the purpose of the present studies the apparent affinity of the reaction mixture was estimated from competition data by using a radioligand binding analysis computer software package (Wan System AB, Trillvägen 13, S-905 92 Umeå, Sweden). The fraction (q) of guanidine product obtained is then given by: [formula] […]

[1] = biological target: T1, crude spleen cytosol (hydroxyguanidine reducing activity) (Rattus norvegicus, UniProt P22985); test: Reduction of guanoxabenz to guanabenz by crude spleen cytosol, HPLC
T1 construct: from tissue; host or cells: rat spleen (70,000 x g supernatant)
Procedure: Preparation of crude spleen cytosol. Rat spleens were homogenised (1:10 w/v) in ice-cold […] Tris, 1.5 mM EDTA, pH 7.5 with glass/Teflon homogenizer. The homogenate was centrifuged at 30,000×g for 15 min at 4° C. and stored frozen at −80° C. After thawing the supernatant was centrifuged at 70,000×g for 1 hr at 4° C. and used for the assays.
Identification of a reaction product derived from hydroxyguanidine. Crude spleen cytosol was incubated at 25° C. with 70 μM guanoxabenz (2(2,6-dichlorophenyl)methylene-N-hydroxyhydrazine carboxi-imidamide) in the presence of 25 mM Tris-HCl, 0.75 mM EDTA, the total volume being 4 ml. Aliquots of 250 μl were then withdrawn from the reaction mixture after 1, 30, 60, 90 or 240 minutes and heated in a water bath to 80° C. for 5 minutes. The sample was then centrifuged and the supernatant filtered through a 0.22 μm Millipore filter whereafter 200 μl of the filtrate was injected into a reverse phase chromatography column (Waters Symmetry C8) equilibrated in 40% methanol, 60% 10 mM Na-acetate buffer, pH 4.5. The elution speed was 0.5 ml/min and the eluted substances were detected by a UV-monitor set at 260 nm.
In FIG. 1 is shown exemplary details on the time course of appearence of the product.
Preparation of the enzymatic reaction product for NMR-analysis. To obtain enough of the product for NMR studies guanoxabenz (500 μM) was pre-incubated with the crude spleen cytosol for 1 hr. […] Total volume of the reaction mixture was 4 ml. After the incubation the reaction mixture was boiled, centrifuged and filtered, essentially as described above, and aliquots of the materials injected onto the HPLC column. […] The fractions containing the product peak were collected, pooled and lyophilized and then subjected to NMR-analysis.

[2] = 70 μM guanoxabenz, 25° C., after 1 minute incubation, HPLC 260 nm
[3] = 70 μM guanoxabenz, after 1 hour

T1 sequence (P22985 whole entry): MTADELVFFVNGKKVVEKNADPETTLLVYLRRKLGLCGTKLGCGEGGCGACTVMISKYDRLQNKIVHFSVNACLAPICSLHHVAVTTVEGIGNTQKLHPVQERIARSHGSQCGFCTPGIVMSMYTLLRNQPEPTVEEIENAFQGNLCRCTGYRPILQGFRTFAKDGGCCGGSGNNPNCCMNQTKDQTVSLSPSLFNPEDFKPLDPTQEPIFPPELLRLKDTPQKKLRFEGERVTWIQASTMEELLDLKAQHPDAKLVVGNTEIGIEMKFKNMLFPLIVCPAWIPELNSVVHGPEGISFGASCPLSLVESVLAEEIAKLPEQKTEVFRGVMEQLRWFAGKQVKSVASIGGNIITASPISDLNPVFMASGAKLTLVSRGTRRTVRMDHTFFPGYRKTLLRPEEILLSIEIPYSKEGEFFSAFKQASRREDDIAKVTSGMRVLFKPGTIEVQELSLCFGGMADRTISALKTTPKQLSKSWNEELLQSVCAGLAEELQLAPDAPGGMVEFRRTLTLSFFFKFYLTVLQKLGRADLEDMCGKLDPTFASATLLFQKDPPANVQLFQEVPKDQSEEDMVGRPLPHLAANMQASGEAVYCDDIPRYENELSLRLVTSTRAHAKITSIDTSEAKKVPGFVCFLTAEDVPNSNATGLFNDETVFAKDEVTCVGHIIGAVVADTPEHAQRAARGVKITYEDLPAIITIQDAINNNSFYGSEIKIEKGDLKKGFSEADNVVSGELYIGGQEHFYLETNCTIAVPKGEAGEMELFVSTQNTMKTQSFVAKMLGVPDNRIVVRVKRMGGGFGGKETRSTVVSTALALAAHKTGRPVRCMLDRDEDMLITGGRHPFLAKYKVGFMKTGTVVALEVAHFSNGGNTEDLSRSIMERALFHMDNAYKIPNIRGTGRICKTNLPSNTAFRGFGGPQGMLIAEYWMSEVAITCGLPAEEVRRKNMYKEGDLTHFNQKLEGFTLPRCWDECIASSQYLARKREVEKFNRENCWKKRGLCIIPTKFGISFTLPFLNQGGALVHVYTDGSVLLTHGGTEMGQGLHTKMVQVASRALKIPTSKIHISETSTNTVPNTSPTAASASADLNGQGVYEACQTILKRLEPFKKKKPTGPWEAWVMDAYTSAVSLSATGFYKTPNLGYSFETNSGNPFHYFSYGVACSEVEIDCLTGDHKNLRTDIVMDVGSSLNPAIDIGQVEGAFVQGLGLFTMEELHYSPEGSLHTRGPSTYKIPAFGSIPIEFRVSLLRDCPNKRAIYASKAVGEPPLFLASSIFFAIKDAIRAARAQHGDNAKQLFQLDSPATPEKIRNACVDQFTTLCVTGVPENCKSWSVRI
xanthine oxidase, sequence (P80457 whole entry): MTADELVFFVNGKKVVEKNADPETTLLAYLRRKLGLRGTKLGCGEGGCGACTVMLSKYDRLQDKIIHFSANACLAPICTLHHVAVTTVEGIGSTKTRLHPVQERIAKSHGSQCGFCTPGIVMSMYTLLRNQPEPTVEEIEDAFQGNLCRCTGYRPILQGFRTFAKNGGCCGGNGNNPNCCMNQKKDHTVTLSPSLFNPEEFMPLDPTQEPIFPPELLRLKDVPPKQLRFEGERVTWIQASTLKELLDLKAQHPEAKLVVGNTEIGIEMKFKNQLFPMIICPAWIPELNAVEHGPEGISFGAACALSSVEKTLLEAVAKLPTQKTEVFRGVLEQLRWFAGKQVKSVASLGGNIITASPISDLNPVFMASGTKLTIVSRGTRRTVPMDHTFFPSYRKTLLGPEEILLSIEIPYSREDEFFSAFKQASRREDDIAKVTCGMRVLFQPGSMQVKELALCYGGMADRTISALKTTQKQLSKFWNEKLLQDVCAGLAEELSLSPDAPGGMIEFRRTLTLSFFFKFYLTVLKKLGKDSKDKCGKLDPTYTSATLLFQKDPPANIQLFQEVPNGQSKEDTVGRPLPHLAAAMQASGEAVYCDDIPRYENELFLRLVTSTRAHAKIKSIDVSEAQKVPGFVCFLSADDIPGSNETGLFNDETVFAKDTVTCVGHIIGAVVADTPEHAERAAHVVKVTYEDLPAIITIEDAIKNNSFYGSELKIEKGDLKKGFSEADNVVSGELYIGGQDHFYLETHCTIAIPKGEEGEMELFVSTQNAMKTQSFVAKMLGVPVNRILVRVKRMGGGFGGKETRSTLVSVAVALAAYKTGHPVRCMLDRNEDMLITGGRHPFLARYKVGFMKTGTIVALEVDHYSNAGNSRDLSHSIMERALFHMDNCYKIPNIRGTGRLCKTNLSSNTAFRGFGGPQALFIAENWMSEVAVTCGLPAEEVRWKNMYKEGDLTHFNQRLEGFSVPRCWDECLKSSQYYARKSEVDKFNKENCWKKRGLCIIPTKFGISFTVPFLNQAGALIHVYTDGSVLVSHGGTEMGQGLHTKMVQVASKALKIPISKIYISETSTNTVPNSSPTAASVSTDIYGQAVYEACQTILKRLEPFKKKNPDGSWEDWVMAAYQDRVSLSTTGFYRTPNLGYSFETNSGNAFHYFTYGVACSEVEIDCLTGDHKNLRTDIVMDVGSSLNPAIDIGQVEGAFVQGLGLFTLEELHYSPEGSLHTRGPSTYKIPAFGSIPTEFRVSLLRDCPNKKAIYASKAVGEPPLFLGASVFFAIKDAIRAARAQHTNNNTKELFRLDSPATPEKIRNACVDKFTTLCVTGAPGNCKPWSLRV

In the case of `N=C(NO)NN=Cc1c(Cl)cccc1Cl` [Guanoxabenz, 2(2,6-dichlorophenyl)methylene-N-hydroxyhydrazine carboxi-imidamide], the “reduction of the superoxide signal (EPR)” value (xanthine oxidase) was “about 60%”, the “concentration of guanabenz in the sample” value (rat heart cytosol) was 6.3 µM and the “conversion of guanoxabenz to guanabenz” value (rat heart cytosol) was 9%. For the same compound, the “q (fraction of guanidine product)” value (rat heart cytosol) was 0.09, the “UV-absorption corresponding to the guanabenz peak” value [1, 2] was 5% and the “UV-absorption in the guanoxabenz peak” value [1, 2] was 95%. For the same compound, the “guanabenz peak as part of total absorbance of the chromatograms” value [1, 3] was “about ⅓”, the “guanoxabenz peak as part of total absorbance of the chromatograms” value [1, 3] was “⅔” and the “size of guanabenz and guanoxabenz peaks” value ([1]; 70 μM guanoxabenz, after 4 hours) was “about equal size”. For the same compound, the “peak corresponding to guanabenz, share of UV-absorbing material (260 nm)” value ([1]; 500 μM guanoxabenz, 1 hr, MgCl2 (2 mM) and DTT (2 mM)) was “more than 99%”.
